# Laboratory results taken from publication PMC9127750, “Structure-based design of CDC42 effector interaction inhibitors for the treatment of cancer” (Cell reports, 2022).
# Where “and” joins values, the source holds several entries; their conditions need not be identical. Identical values can stand only once.
# Test system: WM3248 melanoma cells, 486 antibodies
# Assay: Reverse phase protein arrays (RPPA);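 on RPPA AceCS1.R.V: ratio of treated to vehicle (0 µM) normalized linear protein signal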;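 on RPPA Akt1 pS473.R.V: ratio of treated to vehicle (0 µM) normalized linear protein signal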;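 on RPPA Akt1.R.V: ratio of treated to vehicle (0 µM) normalized linear protein signal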;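 on RPPA Ambra1 pS52.R.C: ratio of treated to vehicle (0 µM) normalized linear protein signal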;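 on RPPA Atg5.R.C: ratio of treated to vehicle (0 µM) normalized linear protein signal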;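 on RPPA Bim.R.V: ratio of treated to vehicle (0 µM) normalized linear protein signal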
# Assay type: cell-based, Human
# Details: 5 uM
# Source text: Pellets were snap frozen in liquid nitrogen and shipped to MD Anderson Cancer Center core RPPA facility for RPPA analysis (Table S5). Three biological replicates for each sample were generated.
# Nomenclatures on the RPPA heatmaps: name_of_antibody.species_of_antibody.status_of_antibody. V - antibody validated; C - validation of antibody in progress; Q - antibody nonspecific; E – under evaluation; antibodies raised in M - mouse, G - goat, R - rabbit, or T - rat.
smiles,measurement,setting,value
"CN(C)c1cccc(Nc2cc(-c3ccccc3)nc(C3CCNCC3)n2)c1 [ARN22089, N1,N1-dimethyl-N3-(6-phenyl-2-(piperidin-4-yl)pyrimidin-4-yl)benzene-1,3-diamine]",RPPA AceCS1.R.V,B.1,1.006
same,RPPA Akt1.R.V,B.1,0.910
same,RPPA Akt1_pS473.R.V,B.1,0.894
same,RPPA Akt2.R.V,B.1,0.975
same,RPPA Akt2_pS474.R.C,B.1,1.016
same,RPPA Akt_pS473.R.V,B.1,0.899
same,RPPA Akt_pT308.R.V,B.1,0.827
same,RPPA Ambra1_pS52.R.C,B.1,0.978
same,RPPA Annexin.I.M.V,B.1,1.021
same,RPPA Atg3.R.V,B.1,0.935
same,RPPA Atg4B.R.C,B.1,0.930
same,RPPA Atg5.R.C,B.1,0.974
same,RPPA Atg7.R.V,B.1,0.761
same,RPPA Aurora.A.R.C,B.1,1.245
same,RPPA Aurora.ABC_pT288_pT232_pT198.R.C,B.1,0.869
same,RPPA Axl.R.V,B.1,0.622
same,RPPA B7.H3.R.C,B.1,0.992
same,RPPA B.Raf.R.C,B.1,0.902
same,RPPA BAP1.M.V,B.1,0.996
same,RPPA BCL2A1.R.V,B.1,0.908
same,RPPA BMK1.Erk5_pT218_Y220.R.V,B.1,1.119
same,RPPA BRCA1.M.C,B.1,0.934
same,RPPA BRD4.R.V,B.1,1.027
same,RPPA Bad_pS112.R.V,B.1,0.939
same,RPPA Bak.R.C,B.1,0.987
same,RPPA Bax.R.V,B.1,0.996
same,RPPA Bcl.xL.R.V,B.1,1.022
same,RPPA Beclin.R.C,B.1,1.111
same,RPPA BiP.GRP78.M.C,B.1,0.998
same,RPPA Bid.R.C,B.1,0.999
same,RPPA Bim.R.V,B.1,0.906
same,RPPA X4E.BP1.R.V,B.1,0.997
same,RPPA X4E.BP1_pS65.R.V,B.1,1.205
same,RPPA X4E.BP1_pT37_T46.R.V,B.1,1.170
same,RPPA X14.3.3.zeta.R.V,B.1,1.080
same,RPPA X14.3.3βR.V,B.1,1.052
same,RPPA X53BP1.R.V,B.1,0.907
same,RPPA b.Catenin.R.V,B.1,1.025
same,RPPA b.Catenin_pT41_S45.R.V,B.1,0.975
same,RPPA c.Abl.R.V,B.1,0.965
same,RPPA c.Abl_pY412.R.C,B.1,0.885
same,RPPA c.IAP2.R.C,B.1,1.018
same,RPPA PREX1.R.V Average,average of 3,1.056
same,RPPA PYGB.R.V Average,average of 3,0.877
same,RPPA PYGM.M.C Average,average of 3,0.831
same,RPPA Puma.R.C Average,average of 3,0.937
same,RPPA RBM15.R.V Average,average of 3,0.979
same,RPPA RIP3.R.C Average,average of 3,1.059
same,RPPA RIP.R.C Average,average of 3,0.875
same,RPPA RPA32.R.V Average,average of 3,0.880
same,RPPA RPA32_pS4_S8.R.C Average,average of 3,0.828
same,RPPA RRM1.R.C Average,average of 3,0.995
same,RPPA RRM2.R.C Average,average of 3,1.008
same,RPPA RSK1.R.V Average,average of 3,0.889
same,RPPA RSK.R.C Average,average of 3,1.023
same,RPPA Rab25.R.V Average,average of 3,1.051
same,RPPA Rad17_pS645.R.V Average,average of 3,1.079
same,RPPA Rad23A.R.C Average,average of 3,0.869
same,RPPA Rad50.R.V Average,average of 3,0.989
same,RPPA Rad51.R.C Average,average of 3,1.005
same,RPPA Raptor.R.V Average,average of 3,1.028
same,RPPA Rb_pS807_S811.R.V Average,average of 3,1.059
same,RPPA Rheb.M.C Average,average of 3,0.971
same,RPPA Rictor.R.C Average,average of 3,1.019
same,RPPA Rictor_pT1135.R.V Average,average of 3,1.106
same,RPPA S6_pS235_S236.R.V Average,average of 3,1.300
same,RPPA S6_pS240_S244.R.V Average,average of 3,1.738
same,RPPA SCD.M.V Average,average of 3,1.005
same,RPPA SDHA.R.V Average,average of 3,1.077
same,RPPA SF2.R.V Average,average of 3,1.028
same,RPPA SFRP1.R.V Average,average of 3,0.962
same,RPPA SGK1.R.V Average,average of 3,1.098
same,RPPA SGK3.R.V Average,average of 3,0.993
same,RPPA SHP2.R.V Average,average of 3,0.993
same,RPPA SHP.2_pY542.R.C Average,average of 3,0.941
same,RPPA SIRPαR.V Average,average of 3,0.994
same,RPPA SLC1A5.R.C Average,average of 3,0.898
same,RPPA SOD1.M.V Average,average of 3,1.002
same,RPPA SOD2.R.V Average,average of 3,1.033
same,RPPA SOX7.R.V Average,average of 3,0.921
same,RPPA STING.R.V Average,average of 3,1.006
same,RPPA Shc_pY317.R.C Average,average of 3,0.879
same,RPPA Slfn11.G.C Average,average of 3,0.785
same,RPPA Smac.M.Q Average,average of 3,0.922
same,RPPA Smad1.R.V Average,average of 3,1.113
same,RPPA Smad3.R.V Average,average of 3,0.963
same,RPPA Smad4.R.V Average,average of 3,1.032
same,RPPA Snail.M.Q Average,average of 3,1.012
same,RPPA Sox2.R.V Average,average of 3,0.986
same,RPPA Sox17.R.V Average,average of 3,0.955
same,RPPA Src_pY416.R.V Average,average of 3,0.979
same,RPPA Src_pY527.R.V Average,average of 3,1.190
same,RPPA Stat1_pY701.R.V Average,average of 3,0.966
same,RPPA Stat3.R.C Average,average of 3,1.005
same,RPPA Stat3_pY705.R.C Average,average of 3,0.914
same,RPPA Stat5a.R.V Average,average of 3,1.163
same,RPPA Stathmin.1.R.V Average,average of 3,0.991
same,RPPA Syk.M.V Average,average of 3,0.987
same,RPPA Synaptophysin.R.C Average,average of 3,1.017
same,RPPA TAZ.R.V Average,average of 3,0.956
same,RPPA TEAD.R.C Average,average of 3,1.012
same,RPPA TFAM.R.V Average,average of 3,1.014
same,RPPA TFRC.R.V Average,average of 3,0.971
same,RPPA TIGAR.R.V Average,average of 3,1.035
same,RPPA TRAP1.M.V Average,average of 3,0.973
same,RPPA TRIM24.R.C Average,average of 3,0.998
same,RPPA TRIP13.R.V Average,average of 3,0.948
same,RPPA Tau.M.C Average,average of 3,0.996
same,RPPA Transglutaminase.M.V Average,average of 3,0.913
same,"RPPA signal, antibody TSC1.R.C, Average",average of 3 replicates,1.118
same,"RPPA signal, antibody TTF1.R.V, Average",average of 3 replicates,0.922
same,"RPPA signal, antibody TUFM.R.V, Average",average of 3 replicates,1.149
same,"RPPA signal, antibody Tuberin.R.V, Average",average of 3 replicates,1.289
same,"RPPA signal, antibody Tuberin_pT1462.R.V, Average",average of 3 replicates,0.994
same,"RPPA signal, antibody Twist.M.C, Average",average of 3 replicates,0.991
same,"RPPA signal, antibody Tyro3.R.V, Average",average of 3 replicates,0.915
same,"RPPA signal, antibody UBAC1.R.V, Average",average of 3 replicates,0.933
same,"RPPA signal, antibody UBQLN4.M.C, Average",average of 3 replicates,1.031
same,"RPPA signal, antibody UGT1A.M.V, Average",average of 3 replicates,0.995
same,"RPPA signal, antibody ULK1_pS757.R.C, Average",average of 3 replicates,1.103
same,"RPPA signal, antibody UQCRC2.M.C, Average",average of 3 replicates,0.845
same,"RPPA signal, antibody UVRAG.R.C, Average",average of 3 replicates,1.060
same,"RPPA signal, antibody VASP.R.V, Average",average of 3 replicates,1.009
same,"RPPA signal, antibody VEGFR.2_pY1175.R.C, Average",average of 3 replicates,0.987
same,"RPPA signal, antibody VHL.EPPK1.M.C, Average",average of 3 replicates,0.993
same,"RPPA signal, antibody VHL.R.C, Average",average of 3 replicates,0.983
same,"RPPA signal, antibody Vinculin.M.V, Average",average of 3 replicates,0.997
same,"RPPA signal, antibody WIPI1.R.C, Average",average of 3 replicates,0.904
same,"RPPA signal, antibody WTAP.R.V, Average",average of 3 replicates,0.916
same,"RPPA signal, antibody Wee1.R.C, Average",average of 3 replicates,1.196
same,"RPPA signal, antibody Wee1_pS642.R.C, Average",average of 3 replicates,1.114
same,"RPPA signal, antibody XBP.1.G.C, Average",average of 3 replicates,0.890
same,"RPPA signal, antibody XPA.M.V, Average",average of 3 replicates,1.012
same,"RPPA signal, antibody XPF.R.C, Average",average of 3 replicates,1.010
same,"RPPA signal, antibody XRCC1.R.C, Average",average of 3 replicates,0.941
same,"RPPA signal, antibody YAP.R.C, Average",average of 3 replicates,1.005
same,"RPPA signal, antibody YAP_pS127.R.V, Average",average of 3 replicates,0.945
same,"RPPA signal, antibody YB1_pS102.R.V, Average",average of 3 replicates,0.981
same,"RPPA signal, antibody YES1.R.V, Average",average of 3 replicates,0.965
same,"RPPA signal, antibody YTHDF2.R.V, Average",average of 3 replicates,0.921
same,"RPPA signal, antibody YTHDF3.R.C, Average",average of 3 replicates,0.920
same,"RPPA signal, antibody ZAP.70.R.V, Average",average of 3 replicates,1.002
same,"RPPA signal, antibody ZEB1.R.V, Average",average of 3 replicates,0.953
same,"RPPA signal, antibody TSC1.R.C",individual replicates,1.023 and 1.362
same,"RPPA signal, antibody TTF1.R.V",individual replicates,0.931 and 1.030 and 0.806
same,"RPPA signal, antibody TUFM.R.V",individual replicates,1.892 and 0.802 and 0.754
same,"RPPA signal, antibody Tuberin.R.V",individual replicates,0.956 and 1.663 and 1.249
same,"RPPA signal, antibody Tuberin_pT1462.R.V",individual replicates,0.926 and 1.194 and 0.864
same,"RPPA signal, antibody Twist.M.C",individual replicates,1.006 and 0.964 and 1.005
same,"RPPA signal, antibody Tyro3.R.V",individual replicates,1.127 and 0.928 and 0.691
same,"RPPA signal, antibody U.Histone.H2B.R.C",individual replicates,0.941
same,"RPPA signal, antibody UBAC1.R.V",individual replicates,0.942 and 1.076 and 0.780
same,"RPPA signal, antibody UBQLN4.M.C",individual replicates,0.956 and 1.187
same,"RPPA signal, antibody UGT1A.M.V",individual replicates,1.021 and 0.968 and 0.996
same,"RPPA signal, antibody ULK1_pS757.R.C",individual replicates,1.126
same,"RPPA signal, antibody UQCRC2.M.C",individual replicates,0.997 and 0.500
same,"RPPA signal, antibody UVRAG.R.C",individual replicates,0.983 and 1.130
same,"RPPA signal, antibody VASP.R.V",individual replicates,0.982 and 1.010
same,"RPPA signal, antibody VAV1.R.C",individual replicates,0.910 and 1.057 and 1.165
same,"RPPA signal, antibody VEGFR.2.R.V",individual replicates,0.908 and 1.050 and 1.150
same,"RPPA signal, antibody VEGFR.2_pY1175.R.C",individual replicates,0.907 and 1.020
same,"RPPA signal, antibody VHL.EPPK1.M.C",individual replicates,0.920
same,"RPPA signal, antibody VHL.R.C",individual replicates,1.080 and 0.894 and 0.975
